According to patent US20260365625A1, “DEUTERIUM ENRICHED PHENYL DERIVATIVES FOR TREATING MITOCHONDRIARELATED DISORDERS OR CONDITIONS” (Rivus Pharmaceuticals, Inc., priority 2022, published 2026):

System: HepG2 (hepatocellular carcinoma cells)
Experiment: Oxygen consumption rate (OCR) in HepG2 cells, Seahorse XFe96 Extracellular Flux Analyzer
Format: cell-based
Experimental: HepG2 (hepatocellular carcinoma cells) were utilized in a Seahorse XFe96 Extracellular Flux Analyzer to analyze Compound (A)'s and the phenolic metabolite of the compound of formula (I)'s (“DNP”) effect on oxygen consumption rate (OCR).
30,000 HepG2 cells in MEM Alpha growth medium+10% Fetal Bovine Serum were seeded in XFe 96-well cell culture plate and incubated overnight at 37 °C with 5% CO2. The following day, cells were transferred to assay media (DMEM basal assay medium containing 10 mM Glucose 2 mM Glutamine, 1 mM Sodium Pyruvate, adjusted to pH7.4 with IN NaOH) and OCR was measured in a Seahorse XFe96 Extracellular Flux Analyzer according to the manufacturer's instructions. The effect of novel compounds on OCR was assayed in quadruplicates, at three different concentrations and in three separate experiments. The concentration that reaches half their maximum effect (EC50) and maximum OCR (Emax) increase as compared to DNP (100%) over untreated cells (0%) was calculated as an average between the three independent experiments. For data analysis GraphPad Prism was utilized.

O=[N+]([O-])c1ccc(O)c([N+](=O)[O-])c1 [DNP]
Emax (maximum OCR increase as compared to DNP (100%) over untreated cells (0%)) (OCR values normalized to 100 μM DNP (Emax=100%), average of three independent experiments): 100%
effect on oxygen consumption rate (OCR) (result in words): increased oxygen consumption rate (OCR)
EC50 (three concentrations in quadruplicates, average of three independent experiments, read-out: EC50 (concentration that reaches half their maximum effect on OCR)): 22 µM
